Reference: PubChem BioAssay AID256 (DTP/NCI, 2004)
Toxic doses and inconclusive results are not listed. The calls were made as follows: active = survival T/C of 150% or more; inactive = T/C below 125% in these data.

Test system: CD2F1 mice, L1210 leukemia ip, survival T/C
Experiment: NCI In Vivo Anticancer Drug Screen. Data for tumor model L1210 Leukemia (intraperitoneal) in CD2F1 (CDF1) mice
Settings: higher = longer survival
How it was run: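 Vehicle-treated tumor-bearing mice served as controls (C) for compound-treated mice (T). Reported figure is T divided by C.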

[1] = endpoint: mean survival time, dose: 100.0 mg/kg/injection, schedule: Q01DX009 (ip), vehicle: saline with Tween-80
[2] = endpoint: mean survival time, dose: 200.0 mg/kg/injection, schedule: Q01DX009 (ip), vehicle: saline with Tween-80
[3] = endpoint: mean survival time, dose: 100.0 mg/kg/injection, schedule: Q04DX003 (ip), vehicle: saline with Tween-80
[4] = endpoint: mean survival time, dose: 200.0 mg/kg/injection, schedule: Q04DX003 (ip), vehicle: saline with Tween-80
[5] = endpoint: mean survival time, dose: 400.0 mg/kg/injection, schedule: Q04DX003 (ip), vehicle: saline with Tween-80
[6] = endpoint: mean survival time, dose: 100.0 mg/kg/injection, schedule: Q04DX003 (ip), vehicle: saline
[7] = endpoint: mean survival time, dose: 200.0 mg/kg/injection, schedule: Q04DX003 (ip), vehicle: saline

Measured: T/C

CC(C)(CO)CCCCCCC(C)(C)CO
inactive: endpoint: mean survival time, dose: 50.0 mg/kg/injection, schedule: Q01DX009 (ip), vehicle: saline with Tween-80 98 % of control | [1] 106 % of control | [2] 106 % of control

CCn1c(C)nc2cc(C(N)=O)ccc21
inactive: [1] 97 % of control | [3] 100 % of control | [2] 91 % of control | [4] 96 % of control | [5] 102 % of control

O=[N+]([O-])c1ccc(C2N(Cc3ccc(Cl)cc3)CCN2Cc2ccc(Cl)cc2)cc1
inactive: endpoint: mean survival time, dose: 100.0 mg/kg/injection, schedule: Q01DX001 (ip), vehicle: saline with Tween-80 92 % of control | [1] 95 % of control | [3] 98 % of control | endpoint: mean survival time, dose: 200.0 mg/kg/injection, schedule: Q01DX001 (ip), vehicle: saline with Tween-80 96 % of control | [2] 88 % of control | [4] 98 % of control | endpoint: mean survival time, dose: 400.0 mg/kg/injection, schedule: Q01DX001 (ip), vehicle: saline with Tween-80 93 % of control | endpoint: mean survival time, dose: 400.0 mg/kg/injection, schedule: Q01DX009 (ip), vehicle: saline with Tween-80 91 % of control | [5] 90 % of control

CNNCCC(=O)NC(C)C
inactive: endpoint: mean survival time, dose: 25.0 mg/kg/injection, schedule: Q04DX003 (ip), vehicle: saline 106 % of control | endpoint: mean survival time, dose: 50.0 mg/kg/injection, schedule: Q04DX003 (ip), vehicle: saline 103 % of control | [6] 101 % of control | [7] 91 % of control

CC(C)(C)[Si](OC(=O)N(CCCl)N=O)(c1ccccc1)c1ccccc1
inactive: endpoint: mean survival time, dose: 6.25 mg/kg/injection, schedule: Q01DX001 (ip), vehicle: distilled water + Tween-80 98 % of control | endpoint: mean survival time, dose: 12.5 mg/kg/injection, schedule: Q01DX001 (ip), vehicle: distilled water + Tween-80 88 % of control | endpoint: mean survival time, dose: 25.0 mg/kg/injection, schedule: Q01DX001 (ip), vehicle: distilled water + Tween-80 93 % of control | endpoint: mean survival time, dose: 50.0 mg/kg/injection, schedule: Q01DX001 (ip), vehicle: distilled water + Tween-80 88 % of control | endpoint: mean survival time, dose: 100.0 mg/kg/injection, schedule: Q01DX001 (ip), vehicle: distilled water + Tween-80 90 % of control

COc1ccc2c(c1)CCc1cn[nH]c1-2
inactive: endpoint: mean survival time, dose: 100.0 mg/kg/injection, schedule: Q01DX001 (ip), vehicle: saline 101 % of control | [6] 106 % of control | endpoint: mean survival time, dose: 200.0 mg/kg/injection, schedule: Q01DX001 (ip), vehicle: saline 103 % of control | [7] 106 % of control | endpoint: mean survival time, dose: 400.0 mg/kg/injection, schedule: Q01DX001 (ip), vehicle: saline 98 % of control | endpoint: mean survival time, dose: 400.0 mg/kg/injection, schedule: Q04DX003 (ip), vehicle: saline 100 % of control

O=C1C=CC(=O)N1c1ccc(Cl)cc1[N+](=O)[O-]
inactive: endpoint: mean survival time, dose: 6.25 mg/kg/injection, schedule: Q04DX003 (ip), vehicle: saline with Tween-80 98 % of control | endpoint: mean survival time, dose: 12.5 mg/kg/injection, schedule: Q01DX009 (ip), vehicle: saline with Tween-80 97 % of control | endpoint: mean survival time, dose: 12.5 mg/kg/injection, schedule: Q04DX003 (ip), vehicle: saline with Tween-80 101 % of control | endpoint: mean survival time, dose: 25.0 mg/kg/injection, schedule: Q01DX009 (ip), vehicle: saline with Tween-80 96 % of control | endpoint: mean survival time, dose: 25.0 mg/kg/injection, schedule: Q04DX003 (ip), vehicle: saline with Tween-80 98 % of control

C(CN1CCOCC1)CN1CN(CCCN2CCOCC2)CN(CCCN2CCOCC2)C1
inactive: [3] 106 % of control | [4] 101 % of control | [5] 113 % of control

CC(=O)Nc1nc2nccn2c(=O)[nH]1
inactive: endpoint: median survival time, dose: 50.0 mg/kg/injection, schedule: Q01DX005 (ip), vehicle: saline 101 % of control | endpoint: median survival time, dose: 100.0 mg/kg/injection, schedule: Q01DX005 (ip), vehicle: saline 100 % of control | endpoint: median survival time, dose: 200.0 mg/kg/injection, schedule: Q01DX005 (ip), vehicle: saline 101 % of control

COc1ccc([C@@]23Oc4cc(OC)cc(OC)c4[C@]2(O)[C@H](O)[C@H](C(=O)N(C)C)[C@H]3c2ccccc2)cc1
inactive: endpoint: median survival time, dose: 0.25 mg/kg/injection, schedule: Q01DX009 (ip), vehicle: Klucel (hydroxypropylcellulose) (HPC) 101 % of control | endpoint: median survival time, dose: 0.5 mg/kg/injection, schedule: Q01DX009 (ip), vehicle: Klucel (hydroxypropylcellulose) (HPC) 97 % of control | endpoint: median survival time, dose: 1.0 mg/kg/injection, schedule: Q01DX009 (ip), vehicle: Klucel (hydroxypropylcellulose) (HPC) 102 % of control | endpoint: median survival time, dose: 2.0 mg/kg/injection, schedule: Q01DX009 (ip), vehicle: Klucel (hydroxypropylcellulose) (HPC) 113 % of control | endpoint: median survival time, dose: 4.0 mg/kg/injection, schedule: Q01DX009 (ip), vehicle: Klucel (hydroxypropylcellulose) (HPC) 108 % of control
